What was measured:
Type in all cases: binding
[1] = target: T1, SW480 colon carcinoma cells lysate proteins (Homo sapiens, UniProt P50454); conditions: PreyGene SERPINH1
T1 sequence (P50454 19-418): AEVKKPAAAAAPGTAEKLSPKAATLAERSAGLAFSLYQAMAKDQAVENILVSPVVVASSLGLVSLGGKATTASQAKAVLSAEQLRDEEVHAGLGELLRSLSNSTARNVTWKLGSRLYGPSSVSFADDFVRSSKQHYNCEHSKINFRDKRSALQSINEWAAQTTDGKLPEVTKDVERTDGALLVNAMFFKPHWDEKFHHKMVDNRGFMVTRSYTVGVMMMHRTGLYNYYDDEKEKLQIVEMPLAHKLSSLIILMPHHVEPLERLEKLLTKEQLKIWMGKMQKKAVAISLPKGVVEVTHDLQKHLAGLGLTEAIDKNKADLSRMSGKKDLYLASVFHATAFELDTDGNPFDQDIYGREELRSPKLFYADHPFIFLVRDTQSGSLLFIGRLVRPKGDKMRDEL

[2] = target: SW480 colon carcinoma cells lysate proteins (Homo sapiens, UniProt P06733); conditions: PreyGene ENO1
[3] = target: T2, SW480 colon carcinoma cells lysate proteins (Homo sapiens, UniProt P78371); conditions: PreyGene CCT2; SW480 cells
T2 sequence (P78371 1-535): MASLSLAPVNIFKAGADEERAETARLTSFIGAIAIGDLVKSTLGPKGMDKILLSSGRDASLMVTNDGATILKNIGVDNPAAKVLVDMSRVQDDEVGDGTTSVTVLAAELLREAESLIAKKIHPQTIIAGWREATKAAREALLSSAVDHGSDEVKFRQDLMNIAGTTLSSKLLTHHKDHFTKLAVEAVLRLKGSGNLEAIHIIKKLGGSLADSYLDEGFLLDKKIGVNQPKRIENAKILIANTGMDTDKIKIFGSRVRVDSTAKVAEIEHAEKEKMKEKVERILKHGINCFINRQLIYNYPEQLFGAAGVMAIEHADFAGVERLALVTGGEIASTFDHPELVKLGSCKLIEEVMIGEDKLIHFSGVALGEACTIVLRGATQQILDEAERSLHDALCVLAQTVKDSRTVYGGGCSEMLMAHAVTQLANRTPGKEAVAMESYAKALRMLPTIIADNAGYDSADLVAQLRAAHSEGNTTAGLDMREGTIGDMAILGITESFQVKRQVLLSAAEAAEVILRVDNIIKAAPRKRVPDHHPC

[4] = target: SW480 colon carcinoma cells lysate proteins (Homo sapiens, UniProt P39687); conditions: PreyGene ANP32A
[5] = target: T3, SW480 colon carcinoma cells lysate proteins (Homo sapiens, UniProt P52209); conditions: PreyGene PGD
T3 sequence (P52209 1-483): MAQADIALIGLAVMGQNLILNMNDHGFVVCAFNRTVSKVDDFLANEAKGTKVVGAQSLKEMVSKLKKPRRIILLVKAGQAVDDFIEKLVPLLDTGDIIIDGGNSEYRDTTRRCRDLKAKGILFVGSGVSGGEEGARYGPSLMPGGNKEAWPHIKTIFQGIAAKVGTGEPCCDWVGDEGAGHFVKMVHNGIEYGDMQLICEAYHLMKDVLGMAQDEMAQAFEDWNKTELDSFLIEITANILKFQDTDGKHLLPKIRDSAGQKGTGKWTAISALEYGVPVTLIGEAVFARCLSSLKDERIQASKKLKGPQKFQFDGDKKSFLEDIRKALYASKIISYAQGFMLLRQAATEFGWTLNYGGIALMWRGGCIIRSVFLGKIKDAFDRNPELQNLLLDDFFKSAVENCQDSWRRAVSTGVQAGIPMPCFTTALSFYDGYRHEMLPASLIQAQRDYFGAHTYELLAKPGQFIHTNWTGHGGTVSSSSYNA

[6] = target: SW480 colon carcinoma cells lysate proteins (Homo sapiens, UniProt O00571); conditions: PreyGene DDX3X
[7] = target: SW480 colon carcinoma cells lysate proteins (Homo sapiens, UniProt O14602); conditions: PreyGene EIF1AY
[8] = target: T4, SW480 colon carcinoma cells lysate proteins (Homo sapiens, UniProt Q07021); conditions: PreyGene C1QBP
T4 sequence (Q07021 74-282): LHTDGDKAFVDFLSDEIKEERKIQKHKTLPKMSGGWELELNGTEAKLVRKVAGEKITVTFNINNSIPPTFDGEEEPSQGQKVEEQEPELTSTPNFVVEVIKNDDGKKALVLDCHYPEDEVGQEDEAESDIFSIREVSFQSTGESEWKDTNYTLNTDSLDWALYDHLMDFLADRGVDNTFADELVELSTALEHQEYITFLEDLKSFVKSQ

Sequence of SW480 colon carcinoma cells lysate proteins (Homo sapiens, UniProt P06733) (P06733 whole entry): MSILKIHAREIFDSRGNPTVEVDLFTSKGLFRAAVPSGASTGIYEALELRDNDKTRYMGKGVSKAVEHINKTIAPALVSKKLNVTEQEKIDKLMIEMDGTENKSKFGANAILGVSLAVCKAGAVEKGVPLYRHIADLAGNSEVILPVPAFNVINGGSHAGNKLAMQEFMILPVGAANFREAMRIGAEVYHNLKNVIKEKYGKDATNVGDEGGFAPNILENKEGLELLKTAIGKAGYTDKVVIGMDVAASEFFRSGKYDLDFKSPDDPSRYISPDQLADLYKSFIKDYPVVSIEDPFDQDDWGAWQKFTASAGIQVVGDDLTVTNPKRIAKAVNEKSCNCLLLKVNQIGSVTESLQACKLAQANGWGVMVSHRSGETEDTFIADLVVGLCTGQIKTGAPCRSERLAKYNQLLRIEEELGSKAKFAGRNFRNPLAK
Sequence of SW480 colon carcinoma cells lysate proteins (Homo sapiens, UniProt P39687) (P39687 whole entry): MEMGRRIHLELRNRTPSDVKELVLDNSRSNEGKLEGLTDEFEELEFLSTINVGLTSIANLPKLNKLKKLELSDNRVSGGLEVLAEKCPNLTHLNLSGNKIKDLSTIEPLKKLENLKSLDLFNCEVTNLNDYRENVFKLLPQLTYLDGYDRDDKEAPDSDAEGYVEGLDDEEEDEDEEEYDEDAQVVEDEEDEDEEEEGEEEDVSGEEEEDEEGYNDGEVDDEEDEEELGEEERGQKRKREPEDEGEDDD
Sequence of SW480 colon carcinoma cells lysate proteins (Homo sapiens, UniProt O00571) (O00571 whole entry): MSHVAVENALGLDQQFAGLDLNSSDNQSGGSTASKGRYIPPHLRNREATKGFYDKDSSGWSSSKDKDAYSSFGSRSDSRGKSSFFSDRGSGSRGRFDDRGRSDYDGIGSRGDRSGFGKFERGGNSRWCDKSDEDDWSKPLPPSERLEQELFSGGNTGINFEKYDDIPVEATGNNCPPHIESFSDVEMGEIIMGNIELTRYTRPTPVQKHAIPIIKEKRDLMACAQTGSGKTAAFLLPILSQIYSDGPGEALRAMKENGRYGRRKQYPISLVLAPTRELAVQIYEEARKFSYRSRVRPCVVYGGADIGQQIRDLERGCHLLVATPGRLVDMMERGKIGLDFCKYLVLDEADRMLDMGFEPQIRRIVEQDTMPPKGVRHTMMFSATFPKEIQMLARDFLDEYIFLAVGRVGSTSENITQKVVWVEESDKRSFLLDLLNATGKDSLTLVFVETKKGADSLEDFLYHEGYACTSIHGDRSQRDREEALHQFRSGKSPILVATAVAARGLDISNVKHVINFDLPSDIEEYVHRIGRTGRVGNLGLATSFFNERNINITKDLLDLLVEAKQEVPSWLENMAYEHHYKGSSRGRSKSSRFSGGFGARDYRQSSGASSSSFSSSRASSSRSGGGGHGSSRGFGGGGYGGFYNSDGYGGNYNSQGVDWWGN
Sequence of SW480 colon carcinoma cells lysate proteins (Homo sapiens, UniProt O14602) (O14602 whole entry): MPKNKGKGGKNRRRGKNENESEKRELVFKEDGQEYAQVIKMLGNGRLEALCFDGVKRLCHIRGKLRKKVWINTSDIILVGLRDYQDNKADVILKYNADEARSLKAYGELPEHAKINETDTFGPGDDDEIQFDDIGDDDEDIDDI

**Q.** Which AvgP [1] does the source give for `C[C@H](Oc1cc(-c2cnn(C3CCNCC3)c2)cnc1N)c1c(Cl)ccc(F)c1Cl` [(5)-crizotinib] here?
**A.** 0.3843

**Q.** And the “SC.Exp. 1-1” value [1]?
**A.** 5

**Q.** What about the “SC.Exp. 1-2” value [1] of the same compound?
**A.** 6

**Q.** And the “SC.Exp. 2-1” value [1]?
**A.** 0

**Q.** And the “SC.Exp. 2-2” value [1]?
**A.** 0

**Q.** And the “Sum (SC.Exp.)” value [1]?
**A.** 11

**Q.** And the AvgP [2]?
**A.** 0.2209

**Q.** And the “SC.Exp. 1-1” value [2]?
**A.** 29

**Q.** What about the “SC.Exp. 1-2” value [2] of the same compound?
**A.** 28

**Q.** What about the “SC.Exp. 2-1” value [2] of the same compound?
**A.** 7

**Q.** What about the “SC.Exp. 2-2” value [2] of the same compound?
**A.** 7

**Q.** What about the “Sum (SC.Exp.)” value [2] of the same compound?
**A.** 71

**Q.** And the AvgP [3]?
**A.** 0

**Q.** And the “SC.Exp. 1-1” value [3]?
**A.** 9

**Q.** And the “SC.Exp. 1-2” value [3]?
**A.** 11

**Q.** And the “SC.Exp. 2-1” value [3]?
**A.** 3

**Q.** What about the “SC.Exp. 2-2” value [3] of the same compound?
**A.** 3

**Q.** And the “SC.Exp. Sum” value [3]?
**A.** 26

**Q.** What about the AvgP [4] of the same compound?
**A.** 0.5951

**Q.** And the “SC.Exp. 1-1” value [4]?
**A.** 1

**Q.** What about the “SC.Exp. 1-2” value [4] of the same compound?
**A.** 1

**Q.** What about the “SC.Exp. 2-1” value [4] of the same compound?
**A.** 1

**Q.** What about the “SC.Exp. 2-2” value [4] of the same compound?
**A.** 3

**Q.** And the “Sum (SC.Exp.)” value [4]?
**A.** 6

**Q.** What about the AvgP [5] of the same compound?
**A.** 0.3262

**Q.** And the “SC.Exp. 1-1” value [5]?
**A.** 4

**Q.** What about the “SC.Exp. 1-2” value [5] of the same compound?
**A.** 2

**Q.** What about the “SC.Exp. 2-1” value [5] of the same compound?
**A.** 0

**Q.** And the “SC.Exp. 2-2” value [5]?
**A.** 0

**Q.** And the “Sum (SC.Exp.)” value [5]?
**A.** 6

**Q.** What about the AvgP [6] of the same compound?
**A.** 0.7764

**Q.** And the “SC.Exp. 1-1” value [6]?
**A.** 2

**Q.** And the “SC.Exp. 1-2” value [6]?
**A.** 2

**Q.** And the “SC.Exp. 2-1” value [6]?
**A.** 1

**Q.** And the “SC.Exp. 2-2” value [6]?
**A.** 2

**Q.** And the “Sum (SC.Exp.)” value [6]?
**A.** 7

**Q.** And the AvgP [7]?
**A.** 0.3949

**Q.** What about the “SC.Exp. 1-1” value [7] of the same compound?
**A.** 2

**Q.** And the “SC.Exp. 1-2” value [7]?
**A.** 3

**Q.** What about the “SC.Exp. 2-1” value [7] of the same compound?
**A.** 0

**Q.** And the “SC.Exp. 2-2” value [7]?
**A.** 0

**Q.** What about the “Sum (SC.Exp.)” value [7] of the same compound?
**A.** 5

**Q.** What about the AvgP [8] of the same compound?
**A.** 0.33

**Q.** And the “SC.Exp. 1-1” value [8]?
**A.** 3

**Q.** And the “SC.Exp. 1-2” value [8]?
**A.** 3

**Q.** What about the “SC.Exp. 2-1” value [8] of the same compound?
**A.** 0

**Q.** And the “SC.Exp. 2-2” value [8]?
**A.** 0

**Q.** What about the “Sum (SC.Exp.)” value [8] of the same compound?
**A.** 6
